In US20220009920A1 (GB005, Inc., priority 2020, published 2022):

What was measured:
Assay in all cases: Large panel kinase profiling
Assay type in all cases: biochemical
Details in all cases: 1 μM test article, 1 mM ATP
[1] = target: T1, MAP3K9 (Homo sapiens, UniProt P80192)
T1 construct: AssayQuant Technologies, Inc. (service provider)
Summary of the method: (§1)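 Single-point profiling at 1 μM test article used 1 mM ATP. Phosphorylation was tracked by sensor fluorescence increase over time at 30° C., with readings each minute at excitation 360 nm and emission 485 nm.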

[2] = target: T2, MAPKAPK3/MK3 (Homo sapiens, UniProt Q16644)
T2 construct: AssayQuant Technologies, Inc. (service provider)
T2 sequence (Q16644 whole entry): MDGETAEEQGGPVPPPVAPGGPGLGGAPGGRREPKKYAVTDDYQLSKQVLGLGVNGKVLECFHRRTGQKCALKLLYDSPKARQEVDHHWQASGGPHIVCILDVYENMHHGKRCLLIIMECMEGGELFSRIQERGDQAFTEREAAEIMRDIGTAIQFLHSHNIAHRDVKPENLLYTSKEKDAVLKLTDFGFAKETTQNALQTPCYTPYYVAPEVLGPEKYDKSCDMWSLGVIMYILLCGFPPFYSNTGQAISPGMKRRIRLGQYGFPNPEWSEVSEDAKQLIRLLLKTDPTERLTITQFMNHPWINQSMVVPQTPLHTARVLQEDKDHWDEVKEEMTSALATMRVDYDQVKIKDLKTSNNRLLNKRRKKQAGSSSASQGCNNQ
Summary of the method: as §1

[3] = target: T3, MAPKAPK5/MK5 (Homo sapiens, UniProt Q8IW41)
T3 construct: AssayQuant Technologies, Inc. (service provider)
T3 sequence (Q8IW41 1-473): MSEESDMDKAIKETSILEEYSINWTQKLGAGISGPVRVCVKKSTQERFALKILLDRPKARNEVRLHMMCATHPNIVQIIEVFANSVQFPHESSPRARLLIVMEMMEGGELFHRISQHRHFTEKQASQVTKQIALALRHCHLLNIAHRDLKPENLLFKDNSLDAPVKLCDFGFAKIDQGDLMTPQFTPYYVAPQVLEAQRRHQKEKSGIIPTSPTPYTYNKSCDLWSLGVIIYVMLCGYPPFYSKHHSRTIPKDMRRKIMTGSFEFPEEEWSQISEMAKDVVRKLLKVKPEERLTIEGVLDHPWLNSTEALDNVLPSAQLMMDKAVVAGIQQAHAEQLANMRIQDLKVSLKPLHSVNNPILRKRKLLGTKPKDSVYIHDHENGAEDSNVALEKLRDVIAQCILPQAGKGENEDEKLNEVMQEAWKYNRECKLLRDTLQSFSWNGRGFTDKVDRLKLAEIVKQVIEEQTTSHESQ
Summary of the method: as §1

[4] = target: PTK6 (Homo sapiens, UniProt Q13882)
PTK6, sequence (Q13882 whole entry, species assumed): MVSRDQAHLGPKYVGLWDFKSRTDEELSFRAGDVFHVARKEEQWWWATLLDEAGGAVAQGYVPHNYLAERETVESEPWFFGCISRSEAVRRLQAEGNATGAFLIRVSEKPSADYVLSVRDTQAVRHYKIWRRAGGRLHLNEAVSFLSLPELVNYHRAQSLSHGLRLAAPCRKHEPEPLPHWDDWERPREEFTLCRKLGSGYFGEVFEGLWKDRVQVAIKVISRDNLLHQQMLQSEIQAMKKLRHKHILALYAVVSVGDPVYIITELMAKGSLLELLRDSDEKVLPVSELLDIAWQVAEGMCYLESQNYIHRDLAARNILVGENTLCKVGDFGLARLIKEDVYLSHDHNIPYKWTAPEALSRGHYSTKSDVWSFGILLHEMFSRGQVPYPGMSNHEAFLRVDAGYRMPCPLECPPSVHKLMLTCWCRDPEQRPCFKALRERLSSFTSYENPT
Summary of the method: as §1

[5] = target: T4, MAP4K3/GLK (Homo sapiens, UniProt Q8IVH8)
T4 construct: AssayQuant Technologies, Inc. (service provider)
T4 sequence (Q8IVH8 1-894): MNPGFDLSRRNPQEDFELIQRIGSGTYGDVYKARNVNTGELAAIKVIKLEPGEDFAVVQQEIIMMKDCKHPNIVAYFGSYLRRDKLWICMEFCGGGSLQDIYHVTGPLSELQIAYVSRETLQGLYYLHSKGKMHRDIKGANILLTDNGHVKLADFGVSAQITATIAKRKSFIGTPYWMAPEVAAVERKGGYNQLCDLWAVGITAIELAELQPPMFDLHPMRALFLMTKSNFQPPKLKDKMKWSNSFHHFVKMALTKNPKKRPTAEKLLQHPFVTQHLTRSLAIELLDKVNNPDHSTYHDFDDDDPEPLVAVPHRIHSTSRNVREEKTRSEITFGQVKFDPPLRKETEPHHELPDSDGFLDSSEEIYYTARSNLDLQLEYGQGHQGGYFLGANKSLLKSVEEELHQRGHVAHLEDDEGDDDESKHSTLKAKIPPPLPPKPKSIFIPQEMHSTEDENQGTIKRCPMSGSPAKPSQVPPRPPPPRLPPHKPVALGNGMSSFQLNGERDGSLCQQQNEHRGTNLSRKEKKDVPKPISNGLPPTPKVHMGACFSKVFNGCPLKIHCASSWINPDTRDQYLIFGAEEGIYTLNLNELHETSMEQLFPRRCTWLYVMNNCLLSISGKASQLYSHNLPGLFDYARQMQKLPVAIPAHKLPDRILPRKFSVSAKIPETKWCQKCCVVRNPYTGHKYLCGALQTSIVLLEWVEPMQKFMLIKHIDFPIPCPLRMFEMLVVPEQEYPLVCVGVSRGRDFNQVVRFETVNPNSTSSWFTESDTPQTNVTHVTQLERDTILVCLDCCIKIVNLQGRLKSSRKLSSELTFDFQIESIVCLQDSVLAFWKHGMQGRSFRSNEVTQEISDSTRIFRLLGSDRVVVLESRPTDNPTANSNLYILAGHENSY
Summary of the method: as §1

[6] = target: T5, MET (Homo sapiens, UniProt P08581)
T5 construct: AssayQuant Technologies, Inc. (assay service)
T5 sequence (P08581 25-1390): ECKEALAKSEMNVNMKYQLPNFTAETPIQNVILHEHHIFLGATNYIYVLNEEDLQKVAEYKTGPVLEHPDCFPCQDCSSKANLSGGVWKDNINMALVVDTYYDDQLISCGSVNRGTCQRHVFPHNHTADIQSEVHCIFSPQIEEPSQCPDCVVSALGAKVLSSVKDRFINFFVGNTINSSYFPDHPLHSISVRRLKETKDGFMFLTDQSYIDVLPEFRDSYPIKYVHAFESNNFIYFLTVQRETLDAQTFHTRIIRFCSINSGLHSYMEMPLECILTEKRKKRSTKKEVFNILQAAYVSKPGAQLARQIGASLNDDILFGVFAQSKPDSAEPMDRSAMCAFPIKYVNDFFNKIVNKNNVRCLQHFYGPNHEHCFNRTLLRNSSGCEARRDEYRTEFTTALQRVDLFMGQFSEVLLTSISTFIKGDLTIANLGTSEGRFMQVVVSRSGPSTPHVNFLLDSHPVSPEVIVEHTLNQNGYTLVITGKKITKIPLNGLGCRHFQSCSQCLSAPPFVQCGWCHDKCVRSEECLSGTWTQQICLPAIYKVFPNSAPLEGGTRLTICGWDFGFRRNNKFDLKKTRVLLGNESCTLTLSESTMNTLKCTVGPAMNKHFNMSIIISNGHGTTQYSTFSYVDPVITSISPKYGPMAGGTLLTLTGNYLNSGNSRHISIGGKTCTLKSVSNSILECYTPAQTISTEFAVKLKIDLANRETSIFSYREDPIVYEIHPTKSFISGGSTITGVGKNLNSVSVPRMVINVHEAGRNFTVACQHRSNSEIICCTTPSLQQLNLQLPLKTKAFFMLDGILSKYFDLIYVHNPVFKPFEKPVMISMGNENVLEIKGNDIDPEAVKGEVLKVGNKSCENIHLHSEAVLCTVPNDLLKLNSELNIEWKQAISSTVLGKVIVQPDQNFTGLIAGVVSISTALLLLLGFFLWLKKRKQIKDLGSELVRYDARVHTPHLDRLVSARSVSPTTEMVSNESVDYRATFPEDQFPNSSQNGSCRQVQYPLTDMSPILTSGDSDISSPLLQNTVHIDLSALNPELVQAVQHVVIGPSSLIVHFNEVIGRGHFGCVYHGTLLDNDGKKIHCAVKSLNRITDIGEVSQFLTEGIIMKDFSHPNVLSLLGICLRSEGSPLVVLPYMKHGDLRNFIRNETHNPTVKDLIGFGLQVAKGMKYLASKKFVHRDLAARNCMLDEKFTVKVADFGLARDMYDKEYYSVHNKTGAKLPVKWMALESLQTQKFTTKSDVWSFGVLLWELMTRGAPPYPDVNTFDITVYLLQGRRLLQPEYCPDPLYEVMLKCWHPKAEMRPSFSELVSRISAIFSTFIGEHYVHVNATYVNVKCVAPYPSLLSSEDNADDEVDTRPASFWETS
Summary of the method: as §1

[7] = target: MAP3K11 (Homo sapiens, UniProt Q16584)
MAP3K11, sequence (Q16584 whole entry, species assumed): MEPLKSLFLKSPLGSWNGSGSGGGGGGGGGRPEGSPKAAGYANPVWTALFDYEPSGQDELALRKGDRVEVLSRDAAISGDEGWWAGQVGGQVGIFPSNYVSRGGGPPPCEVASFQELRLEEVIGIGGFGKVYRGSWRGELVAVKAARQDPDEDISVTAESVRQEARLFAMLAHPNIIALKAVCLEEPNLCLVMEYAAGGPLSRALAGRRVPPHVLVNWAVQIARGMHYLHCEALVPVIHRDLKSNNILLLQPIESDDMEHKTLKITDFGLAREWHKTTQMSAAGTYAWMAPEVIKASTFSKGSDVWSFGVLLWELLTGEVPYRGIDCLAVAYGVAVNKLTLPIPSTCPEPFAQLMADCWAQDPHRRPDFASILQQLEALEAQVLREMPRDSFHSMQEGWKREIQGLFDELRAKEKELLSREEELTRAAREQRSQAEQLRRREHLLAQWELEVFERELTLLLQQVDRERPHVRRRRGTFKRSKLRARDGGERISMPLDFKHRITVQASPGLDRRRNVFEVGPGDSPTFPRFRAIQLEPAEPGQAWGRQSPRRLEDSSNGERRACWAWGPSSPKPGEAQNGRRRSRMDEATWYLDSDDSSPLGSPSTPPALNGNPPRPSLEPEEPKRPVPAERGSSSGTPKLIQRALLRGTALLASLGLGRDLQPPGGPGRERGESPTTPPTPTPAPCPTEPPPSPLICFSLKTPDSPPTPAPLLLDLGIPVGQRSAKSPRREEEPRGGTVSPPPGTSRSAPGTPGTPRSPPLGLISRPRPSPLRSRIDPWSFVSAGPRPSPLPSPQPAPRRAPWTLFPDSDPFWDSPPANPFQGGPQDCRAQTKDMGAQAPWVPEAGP
Summary of the method: as §1

[8] = target: PRKACB (Homo sapiens, UniProt P22694)
Summary of the method: as §1

T1 sequence (P80192 whole entry, species assumed): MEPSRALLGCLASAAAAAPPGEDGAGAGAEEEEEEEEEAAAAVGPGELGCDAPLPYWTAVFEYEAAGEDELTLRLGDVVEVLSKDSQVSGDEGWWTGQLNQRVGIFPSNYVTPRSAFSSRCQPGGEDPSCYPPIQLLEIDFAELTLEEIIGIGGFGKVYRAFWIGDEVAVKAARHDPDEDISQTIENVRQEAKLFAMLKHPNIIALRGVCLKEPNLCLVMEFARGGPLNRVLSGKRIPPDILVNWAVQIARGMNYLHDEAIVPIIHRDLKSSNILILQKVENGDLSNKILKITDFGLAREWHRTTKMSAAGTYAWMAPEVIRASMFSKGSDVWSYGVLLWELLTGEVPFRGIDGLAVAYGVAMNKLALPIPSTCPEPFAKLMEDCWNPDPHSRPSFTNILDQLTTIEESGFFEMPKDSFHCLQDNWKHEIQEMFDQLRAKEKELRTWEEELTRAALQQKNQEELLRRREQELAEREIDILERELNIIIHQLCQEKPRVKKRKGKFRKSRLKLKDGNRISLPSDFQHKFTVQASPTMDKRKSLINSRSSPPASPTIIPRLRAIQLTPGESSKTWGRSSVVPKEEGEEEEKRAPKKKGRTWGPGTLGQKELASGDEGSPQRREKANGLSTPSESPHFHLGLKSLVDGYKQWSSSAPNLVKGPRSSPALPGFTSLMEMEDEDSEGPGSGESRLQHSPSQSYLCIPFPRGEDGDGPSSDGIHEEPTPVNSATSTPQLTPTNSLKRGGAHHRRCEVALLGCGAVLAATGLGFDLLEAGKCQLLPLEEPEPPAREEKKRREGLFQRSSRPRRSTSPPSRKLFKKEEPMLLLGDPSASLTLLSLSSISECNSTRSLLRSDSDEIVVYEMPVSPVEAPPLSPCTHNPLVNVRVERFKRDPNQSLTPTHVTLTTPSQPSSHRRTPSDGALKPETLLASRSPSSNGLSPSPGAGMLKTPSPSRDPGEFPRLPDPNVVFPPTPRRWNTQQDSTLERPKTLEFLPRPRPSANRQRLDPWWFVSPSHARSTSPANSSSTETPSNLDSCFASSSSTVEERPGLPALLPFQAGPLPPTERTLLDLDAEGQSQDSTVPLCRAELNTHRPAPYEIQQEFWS

| Compound | inhibition at 1 µM [1] [%] | inhibition at 1 µM [2] [%] | inhibition at 1 µM [3] [%] | inhibition at 1 µM [4] [%] | inhibition at 1 µM [5] [%] | inhibition at 1 µM [6] [%] | inhibition at 1 µM [7] [%] | inhibition at 1 µM [8] [%] |
| --- | --- | --- | --- | --- | --- | --- | --- | --- |
| C=CC(=O)N1CCCC(c2c(F)cc(C(N)=O)c3[nH]c4c(c23)CCCCC4)C1 (single isomer, unassigned) [Compound 5-6] | -0.9 | 2.1 | 3.7 | -14.1 | -7.3 | 12 | 16 | 10.6 |
| C=CC(=O)N1CCC[C@@H](c2c(F)cc(C(N)=O)c3[nH]c4c(c23)CC2(CC4)CC2)C1 [Compound 6-2, (S)-5-(1-acryloylpiperidin-3-yl)-6-fluoro-1,2,4,9-tetrahydrospiro[carbazole-3,1′-cyclopropane]-8-carboxamide] | 28.8 | 1.5 | 8.6 | 22.2 | 6.2 | 18.9 | 17.6 | 13.2 |
| C=CC(=O)N1CCC[C@@H](c2c(F)cc(C(N)=O)c3[nH]c4c(c23)CCC4)C1 [Compound 10-2, (S)-8-(1-acryloylpiperidin-3-yl)-7-fluoro-1,2,3,4-tetrahydrocyclo-penta[b]indole-5-carboxamide] | 12.3 | -42.3 | -12.6 | 10.1 | 5 | 28.1 | -3.2 | 1.6 |
